Source: ChEMBL document CHEMBL3045144, “Relationship between physicochemical properties and herbicidal activity of 1,2,5-oxadiazole N-oxide derivatives” (Molecules, 2005)

What was measured:
[1] = Retention factor, logKw of the compound in pure aqueous mobile phases by RP-HPLC method; format: physicochemical; details: buffer
Triticum aestivum [2] = test: Pre-emergence herbicidal activity against Triticum aestivum L. (wheat) assessed change in radicular weight; format: functional; design: concentration or dose not given beside the values
Triticum aestivum [3] = test: Pre-emergence herbicidal activity against Triticum aestivum L. (wheat) assessed change in aerial weight; format: functional; design: concentration or dose not given beside the values
Triticum aestivum [4] = test: Pre-emergence herbicidal activity against Triticum aestivum L. (wheat) assessed change in leaf length; format: functional; design: concentration or dose not given beside the values

SMILES	logKw [1]	Activity (Triticum aestivum [2]) [%]	Activity (Triticum aestivum [3]) [%]	Activity (Triticum aestivum [4]) [%]
Cc1c(/C=N/NC(N)=S)no[n+]1[O-]	1.18	-95	–	–
[O-][n+]1onc(-c2ccccc2)c1CCl	4.24	-7	-4	-0.99
Cc1c(C=O)no[n+]1[O-]	0.22	-5	-5	-1.62
[O-][n+]1onc(-c2ccccc2)c1CN1CCN(c2ncccn2)CC1	–	0	0	-1.22
COC(=O)N/N=C/c1ccc2nonc2c1	2.21	20	35	–
O=C(Nc1ccc(Cl)cc1)c1ccc2c(c1)no[n+]2[O-]	–	-73	-50	-1.43
O=C(c1ccc2c(c1)no[n+]2[O-])N1CCOCC1	1.27	-52	-55	-2.06
CCCCNC(=O)c1ccc2c(c1)no[n+]2[O-]	2.74	-66	-71	-1.54
COCCNC(=O)c1ccc2c(c1)no[n+]2[O-]	1.46	-2	-23	-1.54
COC(=O)N/N=C/c1no[n+]([O-])c1C	1.47	-50	-50	-2.08
COC(=O)N/N=C/c1c(-c2ccccc2)no[n+]1[O-]	3.34	16	-22	-1.19
NC(=S)N/N=C/c1c(-c2ccccc2)no[n+]1[O-]	3.24	8	-30	-1.03
Cc1c(/C=N/NC(=O)NC2CCCCC2)no[n+]1[O-]	4.39	-85	-50	-1.59
Cc1ccc2c(c1)no[n+]2[O-]	2.18	-58	-58	-2
O=Cc1ccc2c(c1)no[n+]2[O-]	2.4	-5	-30	-0.93
O=C(O)c1ccc2c(c1)no[n+]2[O-]	–	-9	-16	–
COC(=O)N/N=C\c1ccc2c(c1)no[n+]2[O-]	2.02	13	-6	-1.17
COCCNC(=O)N/N=C\c1ccc2c(c1)no[n+]2[O-]	2.31	–	–	-1.1
O=Cc1c(-c2ccccc2)no[n+]1[O-]	–	18	-4	-1.2
